Assay results reported in patent US10238641B2, “Materials and methods for diagnosis, prevention and/or treatment of stress disorders and conditions associated with A-beta peptide aggregation” (The United States of America as represented by the …, priority 2008, dated 2019).

What was measured:
Aβ1-42 peptide = target: T1, Aβ1-42 peptide (Homo sapiens, UniProt P05067); assay: Aβ oligomerization, Western blot and dot-blot immunoassays (6E10, A11 antibodies); type: biochemical
T1 construct: Aβ1-42 peptide was obtained from American Peptide; purchased American Peptide (Sunnyvale, Calif., USA)
Experimental: Aβ1-42 peptide was obtained from American Peptide (Sunnyvale, Calif., USA). To obtain Aβ1-42 oligomer solutions, we used a previously described protocol that results in solutions containing stable oligomers, but not fibrils for several days (Necula et al. (2007)). The lyophilized peptide was dissolved in 1 volume of 1 mM NaOH and then diluted in phosphate-buffered saline (PBS) pH 7.4 to the desired concentrations.
For the analysis of the inhibition of Aβ1-42 oligomerization/aggregation reaction, we incubated Aβ (100 μM, pH 7.4) prepared in the absence or presence of ascending concentrations of cotinine (100, 200 and 500 μM) for 7 days at 25° C. and analyzed on days 2, 5, 6 and 7. Aβ oligomerization was analyzed by Western blot and dot-blot immunoassays using antibody 6E10, which preferentially recognizes the monomeric form of Aβ and the A11 antibody that specifically recognizes the oligomeric form of the peptide but not Aβ monomers, protofibrils or fibrils.
The western blot analysis was performed as described before (Necula et al. (2007)). 10 μl-aliquots of each oligomerization reaction containing Aβ alone or Aβ plus cotinine were mixed with 5×SDS sample buffer and loaded in a 4-20% Tris-HCl gel and analyzed by Western blot using the 6E10 antibody.
The dot-blot analysis was performed as described (Necula et al. (2007)). 4-8 μl of the oligomerization mixture was applied onto nitrocellulose membranes and allowed to dry, after which the membranes were blocked for 1 h at room temperature with 10% skim milk in TBS containing 0.05% Tween 20 (TBS-T). […] After being washed with TBS-T, membranes were incubated with horseradish peroxidase-conjugated secondary antibody (1:5000) for 1 h, and visualized using enhanced chemiluminescence (Dura ECL detection kit, Pharmacia Biotech, Piscataway, N.J., USA), scanned on the Kodak Image Station 440CF, and analyzed using Molecular Imaging Software version 4.0 (Rochester, N.Y., USA) and NIH ImageJ software. The Aβ solutions for each particular day were analyzed in the same membrane and developed simultaneously. […]

[1] = tested on: phospho-CREB (Serine 133); assay: BDNF-stimulated phosphorylation of CREB after Aβ exposure, Western blot; type: cell-based, rat; conditions: 5 μM Aβ1-42 + 10 μM cotinine 5 h, then BDNF 1 h
Experimental: Western blot analysis of the BDNF-stimulated phosphorylation of CREB in extracts of cortical cells. Cells were exposed to vehicle, 5 μM Aβ alone or 5 μM Aβ plus 10 μM cotinine for 5 hours, then to BDNF (50 ng/ml) for 1 hour and analyzed for CREB by western blot (FIG. 6B). The histogram (FIG. 6A) represents the levels of phospho-CREB (Ser133) normalized against β-Tubulin used as a control of protein loading. The values represent significant (*) difference with P<0.05.
Rat embryonic cortical cells were cultured in 24-well plates (0.3×10^6 cells/well) for 7 days, washed with PBS, collected and disrupted by sonication in ice-cold cell lysis buffer containing (20 mM Tris (pH 7.4), 150 mM NaCl, 1 mM ethylenediaminetetraacetic acid (EDTA), 1 mM egtazic acid (EGTA), 1% triton, 2.5 mM Na pyrophosphate, 1 mM β-glycerophosphate, 1 mM Na orthovanadate, 1 μg/ml leupeptin) (Cell Signaling Technology, Beverly, Mass., USA), 1 mM phenylmethylsulfonyl fluoride (PMSF) (Sigma) complete protease inhibitor cocktail (Roche Molecular Biochemicals, Indianapolis, Ind., USA). […] Protein concentration of supernatants was measured by Bio-Rad protein assay (Bio-Rad, Hercules, Calif., USA), and equal amounts of protein were separated by gradient (4-20%) SDS-PAGE and transferred to nitrocellulose membranes (BA83 0.2 μm; Bio-Rad). […]

ERK1/2 = assay: BDNF-stimulated pERK1/2 in primary cortical neurons, Western blot; type: cell-based; conditions: BDNF 100 ng/ml plus cotinine 10 μM, 1 h
transgenic Tg6799 mice = assay: Circular platform test of reference memory; type: in vivo; conditions: cotinine 2.5 mg/kg via gavage for two months
Experimental: Mice of 2.5 months of age were treated or not with cotinine 2.5 mg/kg via gavage for two months and after tested in the circular platform test. In this test the number of errors to escape a 69 cm diameter circular platform containing 16 holes along its perimeter was determined in a single daily trial (300 s maximum) over 8 days of testing. Only one hole leads to an escape box, which remains the same for any given animal. To control for olfactory cures, the escape hole was relocated after each animal's trial and the maze cleaned with a dilute vinegar solution. Tg, transgenic Tg6799 mice, NT, control wild type littermate mice. N=11 mice by group.

DARPP-32 = DARPP-32 activity in neurons; type: cell-based; conditions: neurons from rat brain cells

T1 sequence (P05067 672-713 limits assumed): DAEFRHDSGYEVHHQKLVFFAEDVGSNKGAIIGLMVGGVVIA

CN1C(=O)CC[C@H]1c1cccnc1 [cotinine]
levels of Aβ monomers (Western blot, 6E10) (Aβ1-42 peptide; 100 μM Aβ1-42, cotinine 100, 200, 500 μM, 5 and 7 days at 25° C.): increased the levels of Aβ monomers | concentration of Aβ oligomers (A11 dot-blot) (Aβ1-42 peptide; 100 μM Aβ1-42, cotinine 100, 200, 500 μM, days 2 and 6 at RT): decreased the concentration of Aβ oligomers | 6E10 immunoreactivity (dot-blot) (Aβ1-42 peptide; 100 μM Aβ1-42, increasing cotinine, days 2 and 6 at RT): higher immunoreactivity for the 6E10 antibody | increase of phosphoCREB versus cells treated with BDNF plus Aβ1-42 [1]: 34% | phosphoCREB level relative to control cells [1]: indistinguishable from the control cell values | BDNF-stimulated phosphorylation of ERK (ERK1/2): did not affect the BDNF-stimulated phosphorylation of ERK | reference memory in the circular platform (transgenic Tg6799 mice): prevents the loss of reference memory | activity of DARPP-32 (DARPP-32): increases the activity of DARPP-32
